Laboratory results reported in US11207432B2, “Substituted organofluoroborates as imaging agents” (THE UNIVERSITY OF BRITISH COLUMBIA, priority 2013, dated 2021).

How the values were obtained:
[1] = Solvolytic defluoridation of fluoridated organotrifluoroborates by 19F-NMR; assay type: physicochemical; details: 200 mM phosphate buffer pH 7.5, 19F NMR; for k(solvolysis): pseudo-first-order fit; for half-life: solvolytic defluoridation, read-out: half-life, t1/2
Method: The following is are representative examples of testing of solvolytic defluoridation of fluoridated organoborates as shown in FIG. 1A to FIG. 1FF and Table 1. Solutions of the fluoridated organotrifluoroborates were made by dissolving 30 mg of the fluoridated organotrifluoroborate into 1 mL of 20% ethanol/acetonitrile.
As the fluoridated organotrifluoroborate salts were often contaminated with a significant amount of free fluoride, a silica column was used to remove the free fluoride from the organotrifluoroborate solution. After loading the crude reaction onto the silica column, the fractions containing the desired organotrifluoroborate were eluted and combined to form a combined solution. In view of the strong stability of the fluoridated organotrifluoroborate in organic solvent, 20% of the combined solution was stored in an NMR tube and this sample served as the “zero” minute time point. A purified organotrifluoroborate salt was isolated from the remaining portion of the combined solution (remaining 80% of the combined solution) by removing the organic solvent from the combined solution by vacuum. Removal of the organic solvent from the combined solution gave the purified fluoridated alkylbornate salt in the form of a white solid. The dry and purified fluoridated organotrifluoroborate salt was re-dissolved into 3 mL of 200 mM phosphate buffer. Solvolytic defluoridation started immediately upon dissolution of the fluoridated organotrifluoroborate salt into phosphate buffer, and accordingly, the time was recorded at the moment of dissolution. The progress of solvolytic defluoridation of the fluoridated organotrifluoroborate salt was monitored using ^19F NMR spectroscopy. General principles, methods and background relating to the use of ^19F NMR spectroscopy for monitoring defluoridation are known, and may be found in, for example, Ting et al. (2008, J. Org. Chem. 73; 4662-70; Harwig et al. (2008) Tetrahedron Letters 49:3152-56; and Ting et al. (2008) Journal of Fluorine Chemistry 129:349-58. For each time point, solvolytic defluoridation data was collected using a 300 MHz ^19F NMR spectrometer (Bruker). ^19F NMR spectroscopic tracers for the fluoridated organotrifluoroborate salt at different times are shown in FIG. 1A. Use of ^19F-NMR to measure solvolytic defluoridation provides a useful model for measuring solvolytic 18F-defluoridation because if one F is lost, all are lost. Moreover, it is understood that the kinetic isotope effect in terms of B—F bond solvolysis is negligible. […] The degree of solvolytic defluoridation of the fluoridated organotrifluoroborate salt was plotted as a function of time, for example, as shown in FIG. 1B for Compound 6 of Table 1. ^19F NMR spectroscopic tracers for the fluoridated organotrifluoroborate salts of compounds listed in Table 1 at different times are shown in FIGS. 1A, 1C, 1E, 1G, 1I, 1K, 1M, 1O, 1Q, 1S, 1U, 1W, 1Y, 1AA, 1CC, and 1EE, and the degree of solvolytic defluoridation of the compounds as a function of time is shown in FIGS. 1B, 1D, 1F, 1H, 1J, 1L, 1N, 1P, 1R, 1T, 1V, 1X, 1ZZ, 1BB, 1DD, and 1FF.
The time curves shown in FIGS. 1B and 1D were fitted and a rate constant, ksolvolysis, for each time curve was calculated. As a measure of the stability of the fluoridated organoborate to solvolytic defluoridation, pkB—F values were calculated using the equation pkB—F=−log(ksolvolysis). In addition to pkB—F values, observed solvolytic defluoridation half-life, t1/2, values and rate constants, ksolvolysis, for a number of different fluoridated organoborates are listed in Table 1.

[2] = Stability of Rhodamine-BF3 conjugates in plasma by TLC; assay type: in vitro ADME, mice; details: tested as Rhodamine B conjugate, 37° C., 2 hours, fluorescence analysis
Method: The symbols A, B, C represent Rhodamine-ArBF3, Rhodamine-PyrBF3, and […] of Table 1, respectively. The subscript numbers 1, 2, 3 represent different test conditions: Plasma 1, Plasma 2 and PBS buffer (Plasma 1 and Plasma 2 were acquired from different mice).
The following is a representative example of testing of solvolytic defluoridation of a fluoridated organotrifluoroborate as shown in FIG. 3. 2 nmol Rhodamine-BF3 was added into 100 μL plasma, and then incubated at 37° C. After 2 hours, 200 μL acetonitrile (ACN) was added to precipitate the protein from the solution. The crude was filtered with 40 μm filter paper, and then a reddish purple solution was achieved. 1 μL of this solution was loaded on the TLC plate. The TLC plate was developed by 15% methanol/DCM. The TLC chromatograms for an aryltrifluoroborate (Rhodamine-ArBF3), Rhodamine-PyrBF3, and a quaternary ammoniomethyltrifluoroborate (Rhodamine-Compound 10 of Table 1) are shown as FIG. 3.
In the TLC chromatograms, Rhodamine B was conjugated with the trifluoroborate to trace the decomposition. The hydrolyzed product lost the negative charge, and therefore migrated much more rapidly than the precursor.

[3] = Stability of 18F-radiolabeled organotrifluoroborate in plasma by HPLC; assay type: in vitro ADME; details: 18F-labelled, 37° C., 150 mins, in vitro test n=3
Method: 1.1 mCi of ^18F-Compound 10 (^18F-ammoniomethyltrifluoroborate) was mixed with 100 μL of plasma to form a ^18F-Compound 10-plasma mixture, and then incubated at 37° C. for two hours. 200 uL of acetonitrile (ACN) was then added to the ^18F-Compound 10-plasma mixture to precipitate the protein from the mixture. The precipated protein portion was separated from the mixture by filtration with 40 μm filter paper, and the clear filtrate was injected into an HPLC for stability analysis. Chromatograms for independent HPLC tests of Rhodamine-Compound 10 of Table 1 at 0 minutes (A), 80 minutes (B), 150 minutes (C), 0 minutes (D), 150 minutes (E), and 150 minutes (F) are shown in FIG. 4A through FIG. 4F.

[4] = pKa of the carboxylic acid carrying the same moiety as the RBF3 compound; cited from earlier work

C[S+](C[B-](F)(F)F)c1ccccc1 (stereo not shown) [Compound 12]
pk (solvolysis) = −log k(solvolysis) [1]: 5.82 | k(solvolysis) [1]: 1.5 × 10^−5 min − 1 | half-life [1]: 7670 h

C#CC[N+](C)(C)C[B-](F)(F)F [Compound 10]
pk (solvolysis) = −log k(solvolysis) [1]: 4.5036 | k(solvolysis) [1]: 3.14 × 10^−5 min − 1 | half-life [1]: 367 h | decomposition (hydrolyzed product) on TLC after incubation in plasma [2]: almost no hydrolyzed product was detected | decomposition in plasma by HPLC [3]: almost no decomposition was observed | pKa of Corresponding COOH [4]: 1.83

C=C[B-](F)(F)F [Compound 2, vinyltrifluoroborate]
pk (solvolysis) = −log k(solvolysis) [1]: 1.01 | k(solvolysis) [1]: 0.099 min − 1 | half-life [1]: 0.117 h | pKa of Corresponding COOH [4]: 4.25

CC[NH+](CC)C[B-](F)(F)F [Compound 6]
pk (solvolysis) = −log k(solvolysis) [1]: 3.7554 | k(solvolysis) [1]: 0.000175 min − 1 | half-life [1]: 65.5 h | pKa of Corresponding COOH [4]: 2.34

C[N+](C)(CC(=O)O)C[B-](F)(F)F [Compound 17]
pk (solvolysis) = −log k(solvolysis) [1]: 2.70 | k(solvolysis) [1]: 0.0020 min − 1 | half-life [1]: 5.77 h

C[n+]1ccn(C[B-](F)(F)F)c1 [Compound 15]
pk (solvolysis) = −log k(solvolysis) [1]: 2.59 | k(solvolysis) [1]: 0.00259 min − 1 | half-life [1]: 4.43 h

O=C(c1ccccc1)[B-](F)(F)F [Compound 8, benzoytrifluoroborate]
pk (solvolysis) = −log k(solvolysis) [1]: 4.0700 | pKa of Corresponding COOH [4]: 2.35

O=C(CCCCO)[B-](F)(F)F [Compound 5]
pk (solvolysis) = −log k(solvolysis) [1]: 3.5249 | k(solvolysis) [1]: 0.000298 min − 1 | half-life [1]: 38.5 h | pKa of Corresponding COOH [4]: 2.5

CCCC[B-](F)(F)F [Compound 1, butyltrifluoroborate]
pk (solvolysis) = −log k(solvolysis) [1]: 0.52 | k(solvolysis) [1]: 0.3 min − 1 | half-life [1]: 0.0383 to 0.05 h | pKa of Corresponding COOH [4]: 4.81

F[B-](F)(F)C[n+]1ccccc1 [Compound 14]
pk (solvolysis) = −log k(solvolysis) [1]: 4.19 | k(solvolysis) [1]: 6.45 × 10^−5 min − 1 | half-life [1]: 178 h | pKa of Corresponding COOH [4]: 2.14

F[B-](F)(F)CBr [Compound 4, bromomethyltrifluoroborate]
pk (solvolysis) = −log k(solvolysis) [1]: 2.98 | k(solvolysis) [1]: 0.000768 min − 1 | half-life [1]: 11 h | pKa of Corresponding COOH [4]: 2.86

F[B-](F)(F)COCc1ccccc1 [Compound 3]
pk (solvolysis) = −log k(solvolysis) [1]: 2.32 | k(solvolysis) [1]: 0.00476 min − 1 | half-life [1]: 2.42 h | pKa of Corresponding COOH [4]: 3.53

COC(=O)C[N+](C)(C)C[B-](F)(F)F [Compound 16]
pk (solvolysis) = −log k(solvolysis) [1]: 4.17 | k(solvolysis) [1]: 0.0000673 min − 1 | half-life [1]: 172 h

C#CC[N+](C)(C[B-](F)(F)F)C[B-](F)(F)F [Compound 18]
pk (solvolysis) = −log k(solvolysis) [1]: 3.61 | k(solvolysis) [1]: 0.000246 min − 1 | half-life [1]: 47 h

F[B-](F)(F)C(Cl)Cl [Compound 11]
pk (solvolysis) = −log k(solvolysis) [1]: 5.3372 | k(solvolysis) [1]: 4.6 × 10^−5 min − 1 | half-life [1]: 2500 h | pKa of Corresponding COOH [4]: 1.29
